Counter-ions that a name gives are not always drawn. Like-named read-outs stand apart in the source and are kept apart here.
Biological target: T1, Neutrophil Lipoxygenase (Cavia porcellus, UniProt A0A286X958)
T1 construct: endogenous in cells; host or cells: guinea pig peritoneal neutrophils
T1 sequence (A0A286X958 1-674): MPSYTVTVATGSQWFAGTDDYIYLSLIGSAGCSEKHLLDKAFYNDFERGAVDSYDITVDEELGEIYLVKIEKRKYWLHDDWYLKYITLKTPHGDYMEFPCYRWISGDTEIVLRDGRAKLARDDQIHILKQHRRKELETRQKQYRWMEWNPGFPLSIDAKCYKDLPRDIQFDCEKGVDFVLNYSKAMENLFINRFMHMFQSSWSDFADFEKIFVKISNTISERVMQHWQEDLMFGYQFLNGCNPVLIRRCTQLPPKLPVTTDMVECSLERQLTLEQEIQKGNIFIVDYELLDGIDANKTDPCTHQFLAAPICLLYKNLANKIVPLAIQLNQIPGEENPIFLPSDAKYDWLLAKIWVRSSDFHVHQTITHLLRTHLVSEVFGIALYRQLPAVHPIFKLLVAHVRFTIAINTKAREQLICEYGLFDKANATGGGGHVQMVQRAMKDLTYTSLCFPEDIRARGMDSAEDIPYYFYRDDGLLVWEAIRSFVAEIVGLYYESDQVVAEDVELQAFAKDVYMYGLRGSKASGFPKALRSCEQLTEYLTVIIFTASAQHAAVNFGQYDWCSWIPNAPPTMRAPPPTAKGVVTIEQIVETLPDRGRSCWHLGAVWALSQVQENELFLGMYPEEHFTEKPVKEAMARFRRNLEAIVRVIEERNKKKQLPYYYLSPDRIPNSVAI
Assay: Inhibition of Neutrophil Lipoxygenase from Immunologically Stimulated Guinea Pig Neutrophiles (LTB4 and 5-HETE)
Type: cell-based
Settings: 10 μg/ml, 100 μM arachidonic acid and 20 μM A23187, the lower the percentage, the more active
Experimental: In this assay 3×10^7 peritoneal neutrophils derived from guinea pigs were incubated at 37° C. in Dulbeccos buffer containing 50 mM tris buffer (pH 7.4). Five minutes before the addition of 100 μM arachidonic acid and 20 μM calcium ionophore (A23187), control vehicle or the test compounds were added to the neutrophils at a concentration of 10 μg/ml. Three minutes after the addition of arachidonic acid and calcium ionophore the total lipid was partitioned into chloroform after adjusting the pH to 3 with citric acid and the addition of equal parts of methanol and chloroform. The 5-HETE and LTB4 were resolved by HPLC using a 5 μM, 4×25 cm octadecyl silica column (IBM Instruments) with 70-80% methanol in water adjusted to pH 3.0 with acetic acid. As the mobile phase was pumped at 1.0 ml/minute, LTB4 and 5-HETE were detected by absorbance at 270 and 236 nm, respectively. LTB4 and 5-HETE were quantitated by comparison with the control and the results were expressed as a percent of control.

remaining activity at 10 µg/mL (read-out: 5-HETE, % of Control) [%]	remaining activity at 10 µg/mL (read-out: LTB4, % of Control) [%]	Compound
0.7	4.8	CC1=C(N2CCN(Cc3ccccc3)CC2)C(=O)c2ccccc2C1=O [Example 43, 2-methyl-3-[4-(phenylmethyl)-1-piperazinyl]-1,4-naphthalenedione]
1.1	–	O=C1C(Cl)=C(N2CCCN(c3nc4ccccc4s3)CC2)C(=O)c2ccccc21 [Example 52, 2-[4-(2-Benzothiazolyl)hexahydro-1H-diazepin-1-yl]-3-chloro-1,4-naphthalenedione]
0.8	20.8	CC1=C(N2CCN(c3nc4ccccc4s3)CC2)C(=O)c2ccccc2C1=O [Example 42, 2-[4-(2-benzothiazolyl)-1-piperazinyl]-3-methyl-1,4-naphthalenedione]
25.7	15.2	CC1CN(C2=C(Cl)C(=O)c3ccccc3C2=O)CCN1C(=O)Nc1cccc(Cl)c1 (stereo not drawn) [Example 58, 4-(3-Chloro-1,4-dihydro-1,4-dioxo-2-naphthalenyl)-N-(3-chlorophenyl)-2-methyl-1-piperazinecarboxamide]
19.9	22.2	O=C1C(Cl)=C(N2CCN(C(=O)Nc3ccccc3Cl)CC2)C(=O)c2ccccc21 [Example 29, 4-(3-Chloro-1,4-dihydro-1,4-dioxo-2-naphthalenyl)-N-(2-chlorophenyl)-1-piperazinecarboxamide]
0	0	CC(=O)NC1=C(N2CCN(c3nc4ccccc4s3)CC2)C(=O)c2ccccc2C1=O [Example 23, N-[3-[4-(2-benzothiazolyl)-1-piperazinyl]-1,4-dihydro-1,4-dioxo-2-naphthalenyl]acetamide]
0	0	O=C1C(Cl)=C(N2CCN(c3ccc4ccccc4n3)CC2)C(=O)c2ccccc21 [Example 10, 2-chloro-3-[4-(2-quinolinyl)-1-piperazinyl]-1,4-naphthalenedione, hydrochloride]
8.8	–	CC1=C(N2CCN(C(=O)Nc3ccc(Cl)cc3)CC2)C(=O)c2ccccc2C1=O [Example 54, N-(4-Chlorophenyl)-4-(1,4-dihydro-3-methyl-1,4-dioxo-2-naphthalenyl)-1-piperazinecarboxamide]
2.2	–	CCOC(=O)N1CCN(C2=C(C)C(=O)c3ccccc3C2=O)CC1 [Example 41, 4-(1,4-Dihydro-3-methyl-1,4-dioxo-2-naphthalenyl)-1-piperazinecarboxylic acid, ethyl ester]
0	–	O=C1C(Cl)=C(N2CCN(C(=O)Nc3cccc(C(F)(F)F)c3)CC2)C(=O)c2ccccc21 [Example 31, 4-(3-chloro-1,4-dihydro-1,4-dioxo-2-naphthalenyl)-N-[3-(trifluoromethyl)phenyl]-1-piperazinecarboxamide]
34.3	–	O=C1C(Cl)=C(N2CCN(c3ncccn3)CC2)C(=O)c2ccccc21 [Example 12, 2-chloro-3-[4-(2-pyrimidinyl)-1-piperazinyl]-1,4-naphthalenedione]
0.3	–	CC(=O)NC1=C(N2CCN(c3cccc(C(F)(F)F)c3)CC2)C(=O)c2ccccc2C1=O [Example 28, N-[1,4-dihydro-1,4-dioxo-3-[4-[3-(trifluoromethyl)phenyl]-1-piperazinyl]-2-naphthalenyl]acetamide]
0	0	CC1=C(N2CCN(c3ccccn3)CC2)C(=O)c2ccccc2C1=O [Example 44, 2-methyl-3-[4-(2-pyridinyl)-1-piperazinyl]-1,4-naphthalenedione]
2	0	O=C1C(Cl)=C(N2CCN(C(=O)Nc3ccccc3F)CC2)C(=O)c2ccccc21 [Example 30, 4-(3-chloro-1,4-dihydro-1,4-dioxo-2-naphthalenyl)-N-(2-fluorophenyl)-1-piperazinecarboxamide]
0	–	CC1=C(N2CCN(c3cccc(C(F)(F)F)c3)CC2)C(=O)c2ccccc2C1=O [Example 45, 2-methyl-3-[4-[3-(trifluoromethyl)phenyl]-1-piperazinyl]-1,4-naphthalenedione]
0	0	O=C1C(Cl)=C(N2CCN(Cc3ccc4c(c3)OCO4)CC2)C(=O)c2ccccc21 [Example 11, 2-[4-(1,3-benzodioxol-5-ylmethyl)-1-piperazinyl]-3-chloro-1,4-naphthalenedione, hydrochloride]
19.6	13.5	O=C1C(Cl)=C(N2CCN(c3nc4ccccc4o3)CC2)C(=O)c2ccccc21 [Example 55, 2-[4-(2-Benzoxazolyl)-1-piperazinyl]-3-chloro-1,4-naphthalenedione]
1.4	–	O=C1C(Cl)=C(N2CCN(C(=O)Nc3ccc(Cl)cc3)CC2)C(=O)c2ccccc21 [Example 32, 4-(3-chloro-1,4-dihydro-1,4-dioxo-2-naphthalenyl)-N-(4-chlorophenyl)-1-piperazinecarboxamide]
13.7	23.2	CCCCc1ccc(C(=O)N2CCN(C3=C(Cl)C(=O)c4ccccc4C3=O)CC2)cc1 [Example 35, 1-(4-butylbenzoyl)-4-(3-chloro-1,4-dihydro-1,4-dioxo-2-naphthalenyl)piperazine]

— patent US4686220A, “Substituted 2-[b-substituted-amino)-ethylamino]-1,4-naphthalenediones for treating asthma, allergic diseases and inflammation in warm-blooded animals” (American Cyanamid Company, priority 1985, dated 1987)
